From US20240365736A1, “COMPOSITIONS AND METHODS FOR TARGETED DEGRADATION OF PROTEINS IN A PLANT CELL” (Oerth Bio LLC, priority 2021, published 2024)

System: Matricaria recutita, Diplotaxis tenuifolia, Agrostis spp., Poa annua, or Arabidopsis thaliana
Experiment: Plant phenotyping assay (herbicidal phenotypes, 96-well plates); also: key: '+++' is highly active; '++' is moderately active; '+' is weakly active; '−' is inactive
Format: in vivo
Conditions: visual score of herbicidal phenotypes after seven days; 238, 475, 950, and 1900 g ai/ha (50-400 uM)
Procedure: Seeds of Matricaria recutita, Diplotaxis tenuifolia, Agrostis spp., Poa annua, or Arabidopsis thaliana were sown into 96-well plates containing 200 μl of growth media [0.5× Murashige and Skoog (MS) basal media (Sigma-Aldrich), 2.5 mM 2-(N-morpholino) ethanesulfonic acid (MES—Sigma-Aldrich), 0.7 g/L Phytagar (Invitrogen); pH 5.7]. Three to five seeds were distributed per well. Plates were placed under fifteen hours of light at 23° C., 65% humidity in a controlled environment growth chamber. After approximately three days, test compounds and controls were mixed with acetone and emulsified with an equal volume of 3% methyl ester of rapeseed oil (Mero), and applied to plants at concentrations of 238, 475, 950, and 1900 g ai/ha (50-400 uM).

CCOC(=O)[C@@H](C)Oc1ccc(Oc2ccc(OC3CCN(CCOCCOCCOCCN4CCN(c5ccc6c(c5)C(=O)N(C5CCC(=O)NC5=O)C6=O)CC4)CC3)cn2)cc1 (stereo partly drawn) [Compound 6-C, Ethyl (2R)-2-(4-((5-((1-(2-(2-(2-(2-(4-(2-(2,6-dioxopiperidin-3-yl)-1,3-dioxoisoindolin-5-yl)piperazin-1-yl)ethoxy)ethoxy)ethoxy)ethyl)piperidin-4-yl)oxy)pyridin-2-yl)oxy)phenoxy)-propanoate]
Plant Activity: −

COc1cnc(OC)n2nc(NS(=O)(=O)c3c(OCCCC4CCN(CCOCCOCCOc5ccc6c(c5)C(=O)N(C5CCC(=O)NC5=O)C6=O)CC4)cccc3C(F)(F)F)nc12 (centres unmarked) [Compound 4-N, N-(5,8-Dimethoxy-[1,2,4]triazolo[1,5-c]pyrimidin-2-yl)-2-(3-(1-(2-(2-(2-((2-(2,6-dioxopiperidin-3-yl)-1,3-dioxoisoindolin-5-yl)oxy)ethoxy)ethoxy)ethyl)piperidin-4-yl)propoxy)-6-(trifluoromethyl)benzenesulfonamide]
Plant Activity: −

CCOC(=O)[C@@H](C)Oc1ccc(Oc2ccc(OCCOCCN3CCC(CCCN4CCN(c5ccc6c(c5)C(=O)N(C5CCC(=O)NC5=O)C6=O)CC4)CC3)cn2)cc1 (stereo partly drawn) [Compound 6-B, Ethyl (2R)-2-[4-[[5-[2-[2-[4-[3-[4-[2-(2,6-dioxo-3-piperidyl)-1,3-dioxo-isoindolin-5-yl]piperazin-1-yl]propyl]-1-piperidyl]ethoxy]ethoxy]-2-pyridyl]oxy]phenoxy]propanoate]
Plant Activity: +

COc1cnc(OC)n2nc(NS(=O)(=O)c3c(OCCOCCOCCOCCOCCOCCOc4cccc5c4C(=O)N(C4CCC(=O)NC4=O)C5=O)cccc3C(F)(F)F)nc12 (centres unmarked) [Compound 4-E, N-(5,8-Dimethoxy-[1,2,4]triazolo[1,5-c]pyrimidin-2-yl)-2-((17-((2-(2,6-dioxopiperidin-3-yl)-1,3-dioxoisoindolin-4-yl)oxy)-3,6,9,12,15-pentaoxaheptadecyl)oxy)-6-(trifluoromethyl)benzenesulfonamide]
Plant Activity: ++

CCO/N=C(\CC)C1=C(O)CC(c2ccc(OCCOCCOCCOc3ccc4c(c3)C(=O)N(C3CCC(=O)NC3=O)C4=O)cc2)CC1=O (centres unmarked) [Compound 5, 2-(2,6-dioxo-3-piperidyl)-5-[2-[2-[2-[4-[4-[(E)-N-ethoxy-C-ethyl-carbonimidoyl]-3-hydroxy-5-oxo-cyclohex-3-en-1-yl]phenoxy]ethoxy]ethoxy]ethoxy]isoindoline-1,3-dione]
Plant Activity: +

CCO/N=C(\CC)C1=C(O)CC(c2ccc(OCCOCCN3CCC(CCCN4CCN(c5ccc6c(c5)C(=O)N(C5CCC(=O)NC5=O)C6=O)CC4)CC3)cc2)CC1=O (centres unmarked) [Compound 5-D, (E)-2-(2,6-Dioxopiperidin-3-yl)-5-(4-(3-(1-(2-(2-((4′-(1-(ethoxyimino)propyl)-5′-hydroxy-3′-oxo-1′,2′,3′,6′-tetrahydro-[1,1′-biphenyl]-4-yl)oxy)ethoxy)ethyl)piperidin-4-yl)propyl)piperazin-1-yl)isoindoline-1,3-dione]
Plant Activity: +

O=C1CCC(N2C(=O)c3ccc(N4CCN(CCOCCOCCOc5cccc(C(=O)C6C(=O)CCCC6=O)c5Cl)CC4)cc3C2=O)C(=O)N1 (centres unmarked) [Compound 2, 5-[4-[2-[2-[2-[2-chloro-3-(2,6-dioxocyclohexane-carbonyl)phenoxy]ethoxy]-ethoxy]ethyl]piperazin-1-yl]-2-(2,6-dioxo-3-piperidyl)isoindoline-1,3-dione]
Plant Activity: +

COc1cnc(OC)n2nc(NS(=O)(=O)c3c(OCCOCCN4CCC(CCCN5CCN(c6ccc7c(c6)C(=O)N(C6CCC(=O)NC6=O)C7=O)CC5)CC4)cccc3C(F)(F)F)nc12 (centres unmarked) [Compound 4-K, N-(5,8-Dimethoxy-[1,2,4]triazolo[1,5-c]pyrimidin-2-yl)-2-(2-(2-(4-(3-(4-(2-(2,6-dioxopiperidin-3-yl)-1,3-dioxoisoindolin-5-yl)piperazin-1-yl)propyl)piperidin-1-yl)ethoxy)ethoxy)-6-(trifluoromethyl)benzenesulfonamide]
Plant Activity: +

CCC(=O)C1=C(O)CC(c2ccc(OCCOCCOCCN3CCN(c4ccc5c(c4)C(=O)N(C4CCC(=O)NC4=O)C5=O)CC3)cc2)CC1=O (centres unmarked) [Compound 5-A, 2-(2,6-Dioxopiperidin-3-yl)-5-(4-(2-(2-(2-((5′-hydroxy-3′-oxo-4′-propionyl-1′,2′,3′,6′-tetrahydro-[1,1′-biphenyl]-4-yl)oxy)ethoxy)ethoxy)ethyl)piperazin-1-yl)isoindoline-1,3-dione]
Plant Activity: −

COc1cnc(OC)n2nc(NS(=O)(=O)c3c(OCCOCCOCCOCCOCCNC(=O)COc4cccc5c4C(=O)N(C4CCC(=O)NC4=O)C5=O)cccc3C(F)(F)F)nc12 (centres unmarked) [Compound 4-H, N-(14-(2-(N-(5,8-Dimethoxy-[1,2,4]triazolo[1,5-c]pyrimidin-2-yl)sulfamoyl)-3-(trifluoromethyl)phenoxy)-3,6,9,12-tetraoxatetradecyl)-2-((2-(2,6-dioxopiperidin-3-yl)-1,3-dioxoisoindolin-4-yl)oxy)acetamide]
Plant Activity: +++

O=C(COc1ccc(Oc2cncc(C(F)(F)F)c2)cc1)NCCCOCCOCCOCCOCCOc1ccc2c(c1)C(=O)N(C1CCC(=O)NC1=O)C2=O (centres unmarked) [Compound 7, N-[3-[2-[2-[2-[2-[2-(2,6-dioxo-3-piperidyl)-1,3-dioxo-isoindolin-5-yl]oxyethoxy]-ethoxy]ethoxy]ethoxy]propyl]-2-[4-[[5-(trifluoromethyl)-3-pyridyl]oxy]phenoxy]acetamide]
Plant Activity: +

O=C(COc1ccc(Oc2nc3ccc(F)cc3s2)cc1)NCCCOCCOCCOc1ccc2c(c1)C(=O)N(C1CCC(=O)NC1=O)C2=O (centres unmarked) [Compound 8-A, N-(3-(2-(2-((2-(2,6-Dioxopiperidin-3-yl)-1,3-dioxoisoindolin-5-yl)oxy)ethoxy)ethoxy)propyl)-2-(4-((6-fluorobenzo[d]thiazol-2-yl)oxy)phenoxy)acetamide]
Plant Activity: +

COc1cnc(OC)n2nc(NS(=O)(=O)c3c(OCCOCCOCCOCCOCCOc4ccc5c(c4)C(=O)N(C4CCC(=O)NC4=O)C5=O)cccc3C(F)(F)F)nc12 (centres unmarked) [Compound 4-A, N-(5,8-Dimethoxy-[1,2,4]triazolo[1,5-c]pyrimidin-2-yl)-2-((14-((2-(2,6-dioxopiperidin-3-yl)-1,3-dioxoisoindolin-5-yl)oxy)-3,6,9,12-tetraoxatetradecyl)oxy)-6-(trifluoromethyl)benzenesulfonamide]
Plant Activity: +++

O=C(COc1ccc(Oc2cncc(C(F)(F)F)c2)cc1)NCCCOCCOCCOCCOc1ccc2c(c1)C(=O)N(C1CCC(=O)NC1=O)C2=O (centres unmarked) [Compound 7-B, N-(3-(2-(2-(2-((2-(2,6-dioxopiperidin-3-yl)-1,3-dioxoisoindolin-5-yl)oxy)ethoxy)ethoxy)ethoxy)propyl)-2-(4-((5-(trifluoromethyl)pyridin-3-yl)oxy)phenoxy)acetamide]
Plant Activity: +

COc1cnc(OC)n2nc(NS(=O)(=O)c3c(OCCOCCN4CCN(c5ccc6c(c5)C(=O)N(C5CCC(=O)NC5=O)C6=O)CC4)cccc3C(F)(F)F)nc12 (centres unmarked) [Compound 4-P, N-(5,8-dimethoxy-[1,2,4]triazolo[1,5-c]pyrimidin-2-yl)-2-(2-(2-(4-(2-(2,6-dioxopiperidin-3-yl)-1,3-dioxoisoindolin-5-yl)piperazin-1-yl)ethoxy)ethoxy)-6-(trifluoromethyl)benzenesulfonamide]
Plant Activity: +

O=C(COc1ccc(Oc2nc3ccc(F)cc3s2)cc1)NCCCOCCOCCOCCOCCOc1ccc2c(c1)C(=O)N(C1CCC(=O)NC1=O)C2=O (centres unmarked) [Compound 8, N-[3-[2-[2-[2-[2-[2-(2,6-dioxo-3-piperidyl)-1,3-dioxo-isoindolin-5-yl]oxyethoxy]-ethoxy]ethoxy]ethoxy]propyl]-2-[4-[(6-fluoro-1,3-benzothiazol-2-yl)oxy]phenoxy]acetamide]
Plant Activity: +

O=C1CCC(N2C(=O)c3cccc(OCCOCCOCCOc4cccc(C(=O)C5C(=O)CCCC5=O)c4Cl)c3C2=O)C(=O)N1 (centres unmarked) [Compound 1, 4-[2-[2-[2-[2-chloro-3-(2,6-dioxocyclohexanecarbonyl)phenoxy]ethoxy]ethoxy]-ethoxy]-2-(2,6-dioxo-3-piperidyl)isoindoline-1,3-dione]
Plant Activity: ++

COc1cnc(OC)n2nc(NS(=O)(=O)c3c(OCCOc4ccc5c(c4)C(=O)N(C4CCC(=O)NC4=O)C5=O)cccc3C(F)(F)F)nc12 (centres unmarked) [Compound 4, N-(5,8-dimethoxy-[1,2,4]triazolo[1,5-c]pyrimidin-2-yl)-2-[2-[2-(2,6-dioxo-3-piperidyl)-1,3-dioxo-isoindolin-5-yl]oxyethoxy]-6-(trifluoromethyl)benzenesulfonamide]
Plant Activity: +

CC(Oc1ccc(Oc2nc3ccc(F)cc3s2)cc1)C(=O)Nc1ccc(OCCCOCCOCCOCCOc2ccc3c(c2)C(=O)N(C2CCC(=O)NC2=O)C3=O)cc1F (centres unmarked) [Compound 8-C, N-(4-(3-(2-(2-(2-((2-(2,6-Dioxopiperidin-3-yl)-1,3-dioxoisoindolin-5-yl)oxy)ethoxy)ethoxy)-ethoxy)propoxy)-2-fluorophenyl)-2-(4-((6-fluorobenzo[d]thiazol-2-yl)oxy)phenoxy)propanamide]
Plant Activity: +

COc1cnc(OC)n2nc(NS(=O)(=O)c3c(OCCCC4CCN(CCOCCOc5ccc6c(c5)C(=O)N(C5CCC(=O)NC5=O)C6=O)CC4)cccc3C(F)(F)F)nc12 (centres unmarked) [Compound 4-M, N-(5,8-Dimethoxy-[1,2,4]triazolo[1,5-c]pyrimidin-2-yl)-2-(3-(1-(2-(2-((2-(2,6-dioxopiperidin-3-yl)-1,3-dioxoisoindolin-5-yl)oxy)ethoxy)ethyl)piperidin-4-yl)propoxy)-6-(trifluoromethyl)benzenesulfonamide]
Plant Activity: +
